How the values were obtained:
EGFR WT = EGFR WT (Homo sapiens (Human), UniProt P00533); assay: EGFR biochemical assay (AssayQuant chelation-enhanced fluorescence); settings: 30 min preincubation, reaction time 360 min
EGFR WT in Ba/F3 cells = EGFR WT in Ba/F3 cells (Homo sapiens (Human), UniProt P00533); assay: Ba/F3 pEGFR assay (AlphaLISA p-EGFR Tyr1068); format: cell-based; settings: 2 hrs treatment, media supplemented with EGF
Description: Cellular activity was determined using the Ba/F3 system for studying oncogenic mutant kinases (Warmuth 2007). […] Transduced cells were maintained in RPMI 1640 with 10% FBS. EGFR WT transduced cells were grown in media supplemented with EGF. To assay cellular activity of inhibitors, cells were treated with inhibitor from 1000X DMSO stock dilutions and incubated for 2 hrs at 37° C. 5% CO2. Subsequently, p-EGFR (Tyr1068) was quantified using a commercial sandwich immunoassay (PerkinElmer AlphaLISA SureFire assay; ALSU-PEGFR) according to the manufacturer's instructions. […] Curr Opin Oncol 19, 55-60 (2007), which is incorporated herein in its entirety.

Sequence of EGFR WT (P00533 668-1210): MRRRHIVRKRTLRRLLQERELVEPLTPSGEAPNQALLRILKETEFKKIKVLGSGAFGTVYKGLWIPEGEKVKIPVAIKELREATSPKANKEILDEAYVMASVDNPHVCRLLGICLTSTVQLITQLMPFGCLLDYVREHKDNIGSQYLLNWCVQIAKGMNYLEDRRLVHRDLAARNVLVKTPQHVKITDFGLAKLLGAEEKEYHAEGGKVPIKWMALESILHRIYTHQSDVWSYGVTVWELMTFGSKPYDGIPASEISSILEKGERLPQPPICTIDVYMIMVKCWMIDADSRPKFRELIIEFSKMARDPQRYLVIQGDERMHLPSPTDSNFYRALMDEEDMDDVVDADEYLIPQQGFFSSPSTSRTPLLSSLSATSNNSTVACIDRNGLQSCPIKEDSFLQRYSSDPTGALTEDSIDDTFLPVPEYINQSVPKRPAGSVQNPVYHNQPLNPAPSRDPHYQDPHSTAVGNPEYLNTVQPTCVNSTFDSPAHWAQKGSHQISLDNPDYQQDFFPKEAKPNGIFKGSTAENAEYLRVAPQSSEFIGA
Sequence of EGFR WT in Ba/F3 cells (P00533 25-1210): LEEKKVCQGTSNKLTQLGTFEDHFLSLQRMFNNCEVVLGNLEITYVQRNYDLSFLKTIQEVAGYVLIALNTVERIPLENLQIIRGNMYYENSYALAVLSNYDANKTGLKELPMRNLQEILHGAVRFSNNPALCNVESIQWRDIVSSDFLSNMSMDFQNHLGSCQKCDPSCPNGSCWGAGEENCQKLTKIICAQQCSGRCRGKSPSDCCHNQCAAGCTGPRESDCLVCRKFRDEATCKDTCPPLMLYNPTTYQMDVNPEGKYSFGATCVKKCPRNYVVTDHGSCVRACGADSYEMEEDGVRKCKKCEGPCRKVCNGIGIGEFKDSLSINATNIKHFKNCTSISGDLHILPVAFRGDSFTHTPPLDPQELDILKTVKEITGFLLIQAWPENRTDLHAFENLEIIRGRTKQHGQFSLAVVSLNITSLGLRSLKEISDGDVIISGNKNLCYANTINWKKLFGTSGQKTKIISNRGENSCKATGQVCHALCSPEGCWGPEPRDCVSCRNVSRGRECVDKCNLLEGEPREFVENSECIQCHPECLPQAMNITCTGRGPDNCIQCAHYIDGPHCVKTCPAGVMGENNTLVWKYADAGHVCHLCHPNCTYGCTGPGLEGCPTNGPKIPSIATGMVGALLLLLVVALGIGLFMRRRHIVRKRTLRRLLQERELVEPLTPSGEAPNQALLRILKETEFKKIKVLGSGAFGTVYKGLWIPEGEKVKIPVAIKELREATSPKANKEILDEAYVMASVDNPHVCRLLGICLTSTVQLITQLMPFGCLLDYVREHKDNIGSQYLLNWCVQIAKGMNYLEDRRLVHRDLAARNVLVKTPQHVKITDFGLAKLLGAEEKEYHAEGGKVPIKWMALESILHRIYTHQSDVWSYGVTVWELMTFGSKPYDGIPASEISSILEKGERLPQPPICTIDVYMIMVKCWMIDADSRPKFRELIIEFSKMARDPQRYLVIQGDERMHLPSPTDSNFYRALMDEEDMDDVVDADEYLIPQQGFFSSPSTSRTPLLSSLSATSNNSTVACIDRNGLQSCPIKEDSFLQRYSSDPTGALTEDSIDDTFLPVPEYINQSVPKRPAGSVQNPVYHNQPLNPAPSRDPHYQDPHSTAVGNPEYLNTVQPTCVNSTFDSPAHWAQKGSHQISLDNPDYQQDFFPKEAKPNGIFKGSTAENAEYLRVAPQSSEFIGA

| IC50 (EGFR WT) | IC50 (EGFR WT in Ba/F3 cells) | SMILES |
| --- | --- | --- |
| 8.55 nM | 4.09 µM | CC(C)(O)Cn1/c(=N/C(=O)c2ccnc(Oc3cccc(O)c3C=O)c2)[nH]c2ccc(CN3CC(C(C)(C)O)C3)cc21 [Compound 63, (E)-2-(2-formyl-3-hydroxyphenoxy)-N-(1-(2-hydroxy-2-methylpropyl)-6-((3-(2-hydroxypropan-2-yl)azetidin-1-yl)methyl)-1,3-dihydro-2H-benzo[d]imidazol-2-ylidene)isonicotinamide] |
| > 1000 nM |  | COc1cc(N(C)CCN(C)C)ccc1Nc1ncc(Cl)c(-c2cn(Cc3cccc(C=O)c3O)c3ccccc23)n1 [Compound 31] |
| 8.42 nM | 4.86 µM | CN1CCN(Cc2ccc3[nH]/c(=N\C(=O)c4cccc(Oc5cccc(O)c5C=O)c4)n(CC(C)(C)O)c3c2)CC1 [Compound 52] |
| 58.2 nM | > 10 µM | CN1CCN(Cc2ccc3[nH]/c(=N\C(=O)c4ccnc(C#Cc5cccc(NS(C)(=O)=O)c5C=O)c4)n(CC(C)(C)O)c3c2)CC1 [Compound 69] |
| 5.88 nM | 1.9 µM | CN1CCN(Cc2ccc3[nH]/c(=N\C(=O)c4cc(C#N)cc(Oc5cccc(O)c5C=O)c4)n(CC(C)(C)O)c3c2)CC1 [Compound 51] |
| 444 nM | > 10 µM | CN1CCN(Cc2ccc3[nH]/c(=N\C(=O)c4ccnc(-c5ccn(-c6cccc(O)c6C=O)n5)c4)n(CC(C)(C)O)c3c2)CC1 [Compound 94] |
| 22.2 nM |  | CC(C)c1ccc(N2CC(CS(C)(=O)=O)C2)c2cnc(Nc3ccnc(C#Cc4cccc(O)c4C=O)n3)cc12 [Compound 41] |
| 10.1 nM | 3.55 µM | CC(C)Cn1/c(=N/C(=O)c2ccnc(Oc3cccc(O)c3C=O)c2)[nH]c2ccc(CN3CCN(C)CC3)cc21 [Compound 65] |
| > 1000 nM |  | CC(C)c1ccc(N2CC(CS(C)(=O)=O)C2)c2cnc(Nc3ccnc(N(C)Cc4cccc(O)c4C=O)n3)cc12 [Compound 43] |
| 4.89 nM | 0.0425 µM | COc1cc(N2CCC(N3CCN(C)CC3)CC2)ccc1Nc1ncc(-c2cc(F)c(O)c(C=O)c2)c(Nc2ccccc2)n1 [Compound 9] |
| 74.3 nM | > 10 µM | CN1CCN(Cc2ccc3[nH]/c(=N\C(=O)c4ccnc(C#Cc5cncc(O)c5C=O)c4)n(CC(C)(C)O)c3c2)CC1 [Compound 100] |
| 61 nM | 0.879 µM | COC(=O)Nc1cccc(C#Cc2cc(C(=O)/N=c3\[nH]c4ccc(CN5CCN(C)CC5)cc4n3CC(C)(C)O)ccn2)c1C=O [Compound 84] |
| 148 nM | 1.83 µM | CC(=O)Nc1cccc(Oc2cc(C(=O)/N=c3\[nH]c4ccc(CN5CCN(C)CC5)cc4n3CC(C)(C)O)ccn2)c1C=O [Compound 98] |
| 11.5 nM | 4.58 µM | CC(C)(O)Cn1/c(=N/C(=O)c2ccnc(Oc3cccc(O)c3C=O)c2)[nH]c2ccc(N3CCC(C(C)(C)O)CC3)cc21 [Compound 70] |
| 529 nM | 6.43 µM | CC(C)(O)Cn1/c(=N/C(=O)c2ccnc(-c3cccc(-c4cccc(O)c4C=O)c3)c2)[nH]c2ccccc21 [Compound 130] |
| > 1000 nM | > 10 µM | CC(C)c1ccc(N2CC(CS(C)(=O)=O)C2)c2cnc(Nc3ccnc(Oc4cccc(O)c4C=O)n3)cc12 [Compound 48] |
| 14.6 nM | 3 µM | COCCN1CCN(Cc2ccc3[nH]/c(=N\C(=O)c4ccnc(Oc5cccc(O)c5C=O)c4)n(CC(C)(C)O)c3c2)CC1 [Compound 75] |
| 10.5 nM | > 10 µM | CC(C)(O)Cn1/c(=N/C(=O)c2ccnc(Oc3cccc(O)c3C=O)c2)[nH]c2ccccc21 [Compound 121] |
| 344 nM | > 10 µM | CN1CCN(Cc2ccc3[nH]/c(=N\C(=O)c4ccnc(N5CC(Oc6cccc(O)c6C=O)C5)c4)n(CC(C)(C)O)c3c2)CC1 [Compound 104] |
| > 1000 nM | > 10 µM | CC(C)(O)Cn1/c(=N/C(=O)c2ccnc(Nc3cccc(C=O)c3O)c2)[nH]c2ccccc21 [Compound 134] |
| > 1000 nM | > 10 µM | COc1cc(N2CCC(N3CCN(C)CC3)CC2)ccc1Nc1ncc(-c2ccc(NC(C)=O)c(C=O)c2)c(Nc2ccccc2)n1 [Compound 20] |
| 5.97 nM | > 8.18 µM | CN1CCN(Cc2ccc3[nH]/c(=N\C(=O)c4cc(F)cc(Oc5cccc(O)c5C=O)c4)n(CC(C)(C)O)c3c2)CC1 [Compound 53] |
| > 1000 nM | > 10 µM | COc1cc(N2CCC(N3CCN(C)CC3)CC2)ccc1Nc1ncc(-c2ccc(C=O)c(O)c2)c(Nc2ccccc2)n1 [Compound 4] |
| 81 nM | > 10 µM | CN1CCN(Cc2ccc3[nH]/c(=N\C(=O)c4cncc(Oc5cccc(O)c5C=O)n4)n(CC(C)(C)O)c3c2)CC1 [Compound 108] |
| 5.33 nM | 1.43 µM | CN1CCN(Cc2ccc3[nH]/c(=N\C(=O)c4cncc(Oc5cccc(O)c5C=O)c4)n(CC(C)(C)O)c3c2)CC1 [Compound 55] |
| 13.5 nM | 2.37 µM | CC(C)(O)Cn1/c(=N/C(=O)c2ccnc(Oc3cccc(O)c3C=O)c2)[nH]c2ccc(CN3CCOCC3)cc21 [Compound 76] |
| > 1000 nM | > 10 µM | COc1cc(N(C)CCN(C)C)ccc1Nc1ncc(-c2ccc(O)c(C=O)c2)c(-c2cn(C)c3ccccc23)n1 [Compound 8] |

| IC50 (EGFR WT) | IC50 (EGFR WT in Ba/F3 cells) | SMILES |
| --- | --- | --- |
| 5.01 nM | 1.49 µM | CN1CCN(Cc2ccc3[nH]/c(=N\C(=O)c4ccc(F)c(Oc5cccc(O)c5C=O)c4)n(CC(C)(C)O)c3c2)CC1 [Compound 110] |
| 221 nM | > 10 µM | O=Cc1c(O)cccc1Oc1cc(C(=O)/N=c2\[nH]c3ccccc3n2CCN2CCOCC2)ccn1 [Compound 123] |
| 278 nM |  | COc1cc(N2CCC(N3CCN(C)CC3)CC2)ccc1Nc1ncc(Cl)c(Nc2ccccc2-c2c(OC)ccc(C=O)c2O)n1 [Compound 34] |
| 63.4 nM | > 10 µM | COc1cc(N2CCC(N3CCN(C)CC3)CC2)ccc1Nc1ncc(-c2cccc(C=O)c2)c(Nc2ccccc2)n1 [Compound 14] |
| 10.4 nM | 4.95 µM | CN1CCN(C(=O)c2ccc3[nH]/c(=N\C(=O)c4ccnc(Oc5cccc(O)c5C=O)c4)n(CC(C)(C)O)c3c2)CC1 [Compound 71] |
| 7.05 nM | 3.36 µM | CN1CCN(Cc2ccc3[nH]/c(=N\C(=O)c4ccnc(C#Cc5cccc(O)c5C=O)c4)n(CC(C)(C)O)c3c2)CC1 [Compound 62] |
| 197 nM | 6.85 µM | CC(C)c1ccc(N2CC(CS(C)(=O)=O)C2)c2cnc(Nc3ccnc(-n4cc(-c5cccc(O)c5C=O)cn4)n3)cc12 [Compound 44] |
| 721 nM | 5.78 µM | CC(=O)Nc1cccc(-c2cnn(-c3cc(C(=O)/N=c4\[nH]c5ccc(CN6CCN(C)CC6)cc5n4CC(C)(C)O)ccn3)c2)c1C=O [Compound 95] |
| 129 nM | 1.29 µM | CN1CCN(Cc2ccc3[nH]/c(=N\C(=O)c4ccnc(C#Cc5cccc(N)c5C=O)c4)n(CC(C)(C)O)c3c2)CC1 [Compound 99] |
| > 1000 nM |  | COc1cc(N2CCC(N3CCN(C)CC3)CC2)ccc1Nc1ncc(-c2ccc(O)c(C=O)c2)c(Nc2ccccc2P(C)(C)=O)n1 [Compound 27] |
| 9.08 nM |  | COc1cc(N2CCC(N3CCN(C)CC3)CC2)ccc1Nc1ncc(C#Cc2cccc(O)c2C=O)c(Nc2ccccc2)n1 [Compound 18] |
| 76.5 nM |  | COc1cc(N2CCC(N3CCN(C)CC3)CC2)ccc1Nc1ncc(Cl)c(Nc2ccc(NCc3ccc(C=O)c(O)c3)cc2)n1 [Compound 33] |
| > 1000 nM |  | CC(C)c1ccc(N2CC(CS(C)(=O)=O)C2)c2cnc(Nc3ccnc(-c4cccc(-c5cccc(O)c5C=O)c4)n3)cc12 [Compound 46] |
| > 1000 nM |  | CC(C)c1ccc(N2CC(CS(C)(=O)=O)C2)c2cnc(Nc3ccnc(-c4cccc(C=O)c4O)n3)cc12 [Compound 50] |
| 255 nM |  | COc1cc(N(C)CCN(C)C)c(NC(C)=O)cc1Nc1nccc(-c2cn(Cc3ccc(O)c(C=O)c3)c3ccccc23)n1 [Compound 30] |
| > 1000 nM |  | CC(C)(O)Cn1/c(=N/C(=O)c2ccnc(C#Cc3cccc(C=O)c3O)c2)[nH]c2ccccc21 [Compound 137] |
| 10.8 nM |  | COc1cc(N2CCC(N3CCN(C)CC3)CC2)ccc1Nc1ncc(-c2ccc(C=O)c(O)c2)c(Nc2ccccc2P(C)(C)=O)n1 [Compound 24] |
| 271 nM |  | COc1cc(N2CCC(N3CCN(C)CC3)CC2)ccc1Nc1ncc(-c2ccc(O)c(C=O)c2)c(Oc2ccccc2)n1 [Compound 21] |
| > 1000 nM |  | CC(C)c1ccc(N2CC(CS(C)(=O)=O)C2)c2cnc(Nc3ccnc(-c4ccc(O)c(C=O)c4)n3)cc12 [Compound 47] |
| 98.4 nM |  | COc1cc(N2CCC(N3CCN(C)CC3)CC2)ccc1Nc1ncc(C#Cc2ccc(O)c(C=O)c2)c(Nc2ccccc2)n1 [Compound 17] |
| 526 nM |  | COc1cc(N(C)CCN(C)C)ccc1Nc1ncc(Cl)c(-c2cn(Cc3cccc(O)c3C=O)c3ccccc23)n1 [Compound 32] |
| 508 nM |  | CN1CCN(Cc2ccc3[nH]/c(=N\C(=O)c4ccnc(N(C)Cc5cccc(O)c5C=O)c4)n(CC(C)(C)O)c3c2)CC1 [Compound 96] |
| 36.4 nM |  | COc1cc(N2CCC(N3CCN(C)CC3)CC2)ccc1Nc1ncc(C#Cc2cccc(C=O)c2O)c(Nc2ccccc2)n1 [Compound 16] |
| > 1000 nM |  | COc1cc(N2CCC(N3CCN(C)CC3)CC2)ccc1Nc1ncc(Cl)c(Oc2ccccc2-c2cccc(O)c2C=O)n1 [Compound 19] |
| 87.5 nM |  | COc1cc(N2CCC(N3CCN(C)CC3)CC2)ccc1Nc1ncc(Cl)c(Nc2cccc(-c3cccc(C=O)c3O)c2)n1 [Compound 25] |
| 211 nM |  | COc1cc(N2CCC(N3CCN(C)CC3)CC2)ccc1Nc1ncc(-c2ccc(O)c(C=O)c2)c(-c2ccccc2)n1 [Compound 22] |
| 872 nM |  | COc1cc(N2CCC(N3CCN(C)CC3)CC2)ccc1Nc1ncc(Cl)c(Nc2cccc(-c3cccc(O)c3C=O)c2)n1 [Compound 26] |

Reference: US20240409609A1, “REVERSIBLE LYSINE COVALENT MODIFIERS OF EGFR AND USES THEREOF” (Terremoto Biosciences, Inc., priority 2021, published 2024)
